Data as given in patent publication US20260217693A1, “SRPK1 INHIBITORS AND METHODS OF USE” (ALLIANTHERA (SUZHOU) BIOPHARMACEUTICAL CO., LTD., priority 2023, published 2026).

Target: SRPK1 (Homo sapiens, UniProt Q96SB4)
Test: SRPK1 assay, Method 1 (ADP-Glo luminescence)
Format: biochemical
Details: Method 1 (no asterisk): substrate Human SRSF1/SF2, 25° C. for 90 min, test compounds 30 μM top, 3-fold, duplicate
Experimental: The SPRK1 assay was performed as follows:
Method 1: The assay buffer was prepared. The reference compound was diluted to 10 mM. The test compounds were prepared at a concentration of 30 mM. Fifteen nL of compounds/DMSO were transferred to a multi-well plate. Then, 7.5 ul enzyme SRPK1 was added to each well, the plate was spun down at 1000 rpm and centrifuged for 30 sec. Then, 7.5 ul substrate Human SRSF1/SF2 was added to each well, the plate spun down at 1000 rpm and centrifuged for 30 sec. The plate was then incubated at 25° C. for 90 min. After 90 min, 5 μl of ADP-Glo™ Reagent was added to each well and the plate incubated at room temperature for 60 minutes. Then, 10 μl of Kinase Detection Reagent was added to each well and the plate incubate at room temperature for 60 minutes. The luminescence of each well was recorded on Envision. The test compounds were at 30 μM top, 3-fold, in duplicate, and the final concentration of DMSO was 0.1%.
All assays were performed using Method 1, except where indicated with an asterisk (*) in the below table, indicating Method 2 was used.

Chain of SRPK1 (Q96SB4 whole entry): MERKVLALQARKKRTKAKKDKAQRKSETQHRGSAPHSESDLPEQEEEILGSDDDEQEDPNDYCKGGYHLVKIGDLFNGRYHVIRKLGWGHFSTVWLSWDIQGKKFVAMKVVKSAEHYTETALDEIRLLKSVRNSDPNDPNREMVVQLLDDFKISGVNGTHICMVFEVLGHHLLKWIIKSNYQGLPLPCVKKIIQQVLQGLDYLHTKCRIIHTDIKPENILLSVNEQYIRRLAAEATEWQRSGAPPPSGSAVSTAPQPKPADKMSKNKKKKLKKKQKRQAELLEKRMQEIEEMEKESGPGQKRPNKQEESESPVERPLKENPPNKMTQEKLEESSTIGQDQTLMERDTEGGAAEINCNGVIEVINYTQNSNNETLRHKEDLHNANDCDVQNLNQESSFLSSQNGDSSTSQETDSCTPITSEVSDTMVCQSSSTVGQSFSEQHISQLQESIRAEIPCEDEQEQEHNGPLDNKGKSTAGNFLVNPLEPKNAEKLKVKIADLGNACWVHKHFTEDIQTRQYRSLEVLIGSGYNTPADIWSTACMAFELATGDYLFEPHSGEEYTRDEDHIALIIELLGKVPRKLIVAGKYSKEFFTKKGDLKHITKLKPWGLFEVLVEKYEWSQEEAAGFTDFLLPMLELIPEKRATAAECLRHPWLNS

SMILES | IC50 [µM]
CC1(C(=O)O)CCN(c2ncc(C(F)(F)F)cc2NC(=O)c2ccc(C3CCOCC3)o2)CC1 [Compound 044] | 0.154
O=C(Nc1cc(C(F)(F)F)cnc1N1CCC(O)CC1)c1cnn(C2CCOCC2)c1 [Compound 101] | > 30
O=C(Nc1cc(C(F)(F)F)cnc1C1CCNCC1)c1ccc(C2CCOCC2)o1 [Compound 062] | > 30
C[C@@H]1C[C@H](O)CCN1c1ncc(C(F)(F)F)cc1NC(=O)c1ccc(Br)o1 [Compound 109] | 0.746
O=C(Nc1cc(C(F)(F)F)cnc1-c1cn[nH]c1)c1ccc(C2CCOCC2)o1 [Compound 012] | 0.109
O=C(Nc1cc(C2CC2)cnc1N1CCC(O)CC1)c1ccc(-c2cn[nH]c2)cn1 [Compound 125] | > 30
COC(=O)C1(C)CCN(c2ncc(C(F)(F)F)cc2NC(=O)c2ccc(C3CCOCC3)o2)CC1 [Compound 032, methyl 4-methyl-1-[3-[(5-tetrahydropyran-4-ylfuran-2-carbonyl)amino]-5-(trifluoromethyl)-2-pyridyl]piperidine-4-carboxylate] | 0.114
CNC(=O)C1(C)CCN(c2ncc(C(F)(F)F)cc2NC(=O)c2ccc(C3CCOCC3)o2)CC1 [Compound 057] | 0.0305
O=C(Nc1cc(C(F)(F)F)cnc1N1CCC2(CC1)CC(O)C2)c1ccc(C2CCOCC2)o1 [Compound 060] | 0.0519
O=C(Nc1cc(C(F)(F)F)cnc1N1CCC(O)CC1)c1ccn(C2CCOCC2)n1 [Compound 103] | 0.136
O=C(Nc1cc(C(F)(F)F)cnc1N1CCC(O)C1)c1ccc(C2CCOCC2)o1 (stereo not drawn) [Compound 035] | > 30
CN(C)C(=O)C1(C)CCN(c2ncc(C(F)(F)F)cc2NC(=O)c2ccc(C3CCOCC3)o2)CC1 [Compound 045] | 0.0845
C[C@H]1C[C@H](O)CCN1c1ncc(C(F)(F)F)cc1NC(=O)c1ccc(C2CCOCC2)o1 [Compound 076] | 0.0142
CC1(O)CCN(c2ncc(Cl)cc2NC(=O)c2ccc(C3CCOCC3)o2)CC1 [Compound 025] | 0.17
Nc1cc(-c2ccc(C(=O)Nc3cc(C4CC4)cnc3N3CCc4[nH]ncc4C3)o2)cc(N)n1 [Compound 131] | > 30
O=C(Nc1cc(C(F)(F)F)cnc1N1CCCC(O)C1)c1ccc(C2CCOCC2)o1 (stereo not drawn) [Compound 072] | 0.754

SMILES | IC50 [µM]
O=C(Nc1cc(C(F)(F)F)cnc1N1CCC(O)CC1)c1cc(Cl)ccn1 [Compound 091] | > 30
O=C(Nc1cc(C2CC2)cnc1N1CCC(O)CC1)c1ccc(C2CCOCC2)o1 [Compound 029] | 0.0309
O=C(Nc1cc(C2CC2)cnc1N1CCc2[nH]ncc2C1)c1ccc(Br)o1 [Compound 120] | > 30
O=C(Nc1cc(C(F)(F)F)cnc1N1CCC(O)CC1)c1ccc(F)cn1 [Compound 089] | 0.878
C[C@@H]1C[C@H](O)CCN1c1ncc(C2CC2)cc1NC(=O)c1ccc(-c2ccnc(N)c2)o1 [Compound 128] | > 30
O=C(Nc1cc(C(F)(F)F)cnc1N1CCC(O)CC1)c1ccc(C2CCOCC2)o1 [Compound 005] | 0.0419
CC1(O)CCN(c2ncc(C3CC3)cc2NC(=O)c2ccc(C3CCOCC3)o2)CC1 [Compound 137, N-(5-Cyclopropyl-2-(4-hydroxy-4-methylpiperidin-1-yl)pyridin-3-yl)-5-(tetrahydro-2H-pyran-4-yl) furan-2-carboxamide] | 0.21
O=C(Nc1cc(C(F)(F)F)cnc1-c1ccccc1)c1ccc(C2CCOCC2)o1 [Compound 008] | > 30
O=C(Nc1cc(C(F)(F)F)cnc1N1CCC(O)CC1)c1cccc(-c2cn[nH]c2)n1 [Compound 100] | 0.0597
C[C@H]1C[C@@H](O)CCN1c1ncc(C(F)(F)F)cc1NC(=O)c1ccc(C2CCOCC2)o1 [Compound 075] | 0.0131
O=C(Nc1cc(C(F)(F)F)cnc1N1CCC(O)CC1)c1cccc(Cl)n1 [Compound 087] | 0.249
O=C1CCC2(CCN(c3ncc(C(F)(F)F)cc3NC(=O)c3ccc(C4CCOCC4)o3)CC2)N1 [Compound 081] | 0.215
O=C(Nc1cc(C(F)(F)F)cnc1N1CCc2n[nH]cc2C1)c1ccc(C2CCOCC2)o1 [Compound 078] | 0.0279
CC(=O)OC1CCN(c2ncc(C(F)(F)F)cc2NC(=O)c2ccc(C(F)(F)F)cn2)CC1 [Compound 068] | > 30
Nc1cc(-c2ccc(C(=O)Nc3cc(C4CC4)cnc3N3CCc4[nH]ncc4C3)o2)ccn1 [Compound 122] | > 30
C[C@@H]1C[C@@H](O)CCN1c1ncc(C2CC2)cc1NC(=O)c1ccc(-c2cc(N)nc(N)c2)o1 [Compound 134] | > 30

More lines, now with the values ahead:

IC50 [µM] | SMILES
0.26 | O=C(Nc1cc(C(F)(F)F)cnc1N1CCC(O)CC1)c1ccccn1 [Compound 047]
> 30 | O=C(Nc1cc(C(F)(F)F)cnc1N1CCC(O)CC1)c1ccncc1 [Compound 046, N-[2-(4-hydroxy-1-piperidyl)-5-(trifluoromethyl)-3-pyridyl]pyridine-4-carboxamide]
8.24 | O=C(Nc1cc(C(F)(F)F)cnc1-c1ccncc1)c1ccc(C2CCOCC2)o1 [Compound 010]
0.971 | CN1CCN(c2ncc(C(F)(F)F)cc2NC(=O)c2ccc(-c3ccncc3)o2)CC1 [Compound 003]
> 30 | O=C(Nc1cc(C(F)(F)F)cnc1N1CCS(=O)(=O)CC1)c1ccc(C2CCOCC2)o1 [Compound 042]
2.05 | CC(=O)N1CCN(c2ncc(C(F)(F)F)cc2NC(=O)c2ccc(C3CCOCC3)o2)CC1 [Compound 085]
0.344 | CC1C[C@@H](O)CCN1c1ncc(C(F)(F)F)cc1NC(=O)c1ccc(-c2ccncc2)o1 (stereo in doubt) [Compound 080, N-(2-((2S,4S)-4-hydroxy-2-methylpiperidin-1-yl)-5-(trifluoromethyl)pyridin-3-yl)-5-(pyridin-4-yl) furan-2-carboxamide]
> 30 | C[C@@H]1C[C@@H](O)CCN1c1ncc(C(F)(F)F)cc1NC(=O)c1ccc(-c2cn[nH]c2)o1 [Compound 113]
2.34 | CC(=O)OC1CCN(c2ncc(C(F)(F)F)cc2NC(=O)c2ccc(-c3ccnnc3)o2)CC1 [Compound 049]
0.0451 | CC1(O)CCCN(c2ncc(C(F)(F)F)cc2NC(=O)c2ccc(C3CCOCC3)o2)CC1 (stereo not drawn) [Compound 055]
> 30 | O=C(Nc1cc(C(F)(F)F)cnc1N1CCSCC1)c1ccc(C2CCOCC2)o1 [Compound 041]
0.102 | CC1C[C@@H](O)CCN1c1ncc(C(F)(F)F)cc1NC(=O)c1ccc(-c2ccncc2)o1 (stereo in doubt) [Compound 079, N-(2-((2R,4S)-4-hydroxy-2-methylpiperidin-1-yl)-5-(trifluoromethyl)pyridin-3-yl)-5-(pyridin-4-yl) furan-2-carboxamide]
> 30 | C#Cc1ccc(C(=O)Nc2cc(C(F)(F)F)cnc2N2CCC(O)CC2)o1 [Compound 117]
1.53 | O=C(Nc1cc(C(F)(F)F)cnc1N1CCC(O)CC1)c1ccc(-c2nc[nH]n2)o1 [Compound 105]
0.0148 | O=C(Nc1cc(C(F)(F)F)cnc1N1CCC(O)CC1)c1ccc(-c2cn[nH]n2)o1 [Compound 108]
0.0248 | O=C(Nc1cc(C2CC2)cnc1N1CCC(O)CC1)c1ccc(-c2ccncc2)o1 [Compound 034]
> 30 | O=C(Nc1cc(C(F)(F)F)cnc1N1CCC(O)CC1)c1ccc(-c2cn[nH]c2)cc1 [Compound 129]
> 30 | O=C(Nc1cc(C(F)(F)F)cnc1-c1cn[nH]c1)c1ccc(-c2ccncc2)o1 [Compound 014]
0.346 | CC1(O)CCN(c2ncc(Cl)cc2NC(=O)c2ccc(-c3ccncc3)o2)CC1 [Compound 024]
0.079 | O=C(Nc1cc(C(F)(F)F)cnc1N1CCC(O)CC1)c1ccc(-c2ccncc2)o1 [Compound 004, N-(2-(4-hydroxypiperidin-1-yl)-5-(trifluoromethyl)pyridin-3-yl)-5-(pyridine-4-yl) furan-2-carboxamide]
> 30 | O=C(Nc1cc(C(F)(F)F)cnc1N1CCCCC1)c1ccc(C2CCOCC2)o1 [Compound 036]
0.0235 | O=C(Nc1cc(C(F)(F)F)cnc1N1CCC(O)CC1)c1ccc(-c2cccnc2)o1 [Compound 056]
0.34 | O=C1C=C(c2ccc(C(=O)Nc3cc(C(F)(F)F)cnc3N3CCC(O)CC3)o2)CCO1 [Compound 102]
> 30 | O=C(Nc1cc(C(F)(F)F)cnc1N1CCC(O)CC1)c1ccc(-c2ccnc(F)c2)o1 [Compound 016]
> 30 | O=C(Nc1cc(C(F)(F)F)cnc1-c1cccnc1)c1ccc(C2CCOCC2)o1 [Compound 009]
0.641 | O=C(Nc1cc(C(F)(F)F)cnc1N1CCC(O)CC1)c1ccc(-c2cnccn2)o1 [Compound 074, N-(2-(4-hydroxypiperidin-1-yl)-5-(trifluoromethyl)pyridin-3-yl)-5-(pyrazin-2-yl) furan-2-carboxamide]
0.435 | O=C(Nc1cc(C(F)(F)F)cnc1N1CCC(O)CC1)c1ccc(-c2ccnnc2)o1 [Compound 050]
4.64 | O=C(Nc1cc(C(F)(F)F)cnc1N1CCC(F)(F)CC1)c1ccc(-c2ccncc2)o1 [Compound 070]
